Entries after “also recorded” stand apart in the source; their conditions may differ.
Tests used:
Tau368 mice [1] = test: Novel-object recognition test; assay type: in vivo, mouse
Method: Novel-object recognition tests were performed one day after the object-place recognition. A similar protocol was used except that object B was replaced by a novel object (object C) in the test phase, and mice preference for the novel object was measured.

HEK293(hTau) cells = test: CCK8 cell viability assay; assay type: cell-based, human; settings: to 200 μM, 24 h; normalized to 0-μM group; F(4, 25) = 1.47, P = 0.24
Method: HEK293 cells with stable expression of wild-type full-length human tau (term as HEK293(hTau) cells), were cultured in DMEM (Hyclone, SH30022.01) containing 10% fetal bovine serum (Biological Industries, 04–001-1ACS) and […] G418 (Thermo Fisher Scientific, 10,131,027) under 5% CO2, 37 °C.
HEK293(hTau) cells were administrated with increasing concentration of DEPTAC for 24 h. About 5000 cells were dispensed into each well of a 96-well plate pre-incubated in a humidified incubator under 37 °C, 5% CO2. A total volume of 10 μL CCK-8 solution was delivered into each well of the plate. The plate was incubated for 1–4 h, and the light absorbance was measured at 450 nm using a microplate reader (BioTek-Synergy2). Cell viability (V) was evaluated by the formula: V = (Ad – A0) / (Av – A0) × 100%, where Ad and Av was the absorbance of DEPTAC-treated and vehicle-treated cells, respectively. A0 was the absorbance of wells with only culture medium and CCK8.

human tau (hTau) = test: Western blotting of phospho-tau and total tau in primary neurons with hTau overexpression; assay type: cell-based
Method: Lentivirus LV-EF1α-hTau-GFP (3.50E+8 vg/mL) was packaged by OBiO (Shanghai, China) and used for hTau-overexpression (fused with GFP) in cultured primary rat neurons. AAV-CaMKIIα-Cre (diluted to 5.21E + 07 vg/mL) and AAV-EF1α-DIO-mCherry (3.24E + 12 vg/mL) were obtained from BrainVTA (Wuhan, China) and co-injected (1:1 vol/vol) for sparse labeling of dorsal DG neurons. Doxycycline was purchased from Energy Chemical (Shanghai, China). Rabbit polyclonal DEPTAC antibody was prepared by Daian Biotechnology (Wuhan, China). All other reagents including MG132 were purchased from Sigma-Aldrich (USA), unless otherwise specified.
(§1) Primary hippocampal neurons were prepared from E12–E15 days SD rat embryos. Briefly, pregnant rats were acutely executed, hippocampus was dissected on ice and gently minced in DME/F12 (Hyclone) then suspended in 0.125% (vol/vol) trypsin solution at 37 °C for 20 min. Enzymatic activity was stopped by fetal bovine serum. Neurons were initially kept in 10% FBS-containing DME/F12 for 4–6 h, and subsequently cultured in Neurobasal (Hyclone) with 2% B27, 1% glutamax and 1% penicillin–streptomycin (Thermo Fisher Scientific) in dishes pre-coated with 100 μg/mL poly-D-lysine. Serum was gradually removed by replacing half of the medium for each time within the following 2 days. Especially, to inhibit the proteasome-dependent proteolysis, the cultured hippocampal neurons were treated with 5 μM MG132 for 5 h before harvest.
Cultured cells or hippocampus tissues were collected on ice, and homogenized with RIPA lysis buffer containing 50 mM Tris-HCl, 100 mM NaCl, 1% Triton X-100, 5 mM EDTA, and 1:100 PMSF, and then centrifuged at 12,000 × g for 20 min. The supernatant was collected for the analysis of soluble proteins. In some experiments, the pellets were further incubated with 8% SDS buffer at 37 °C and then ultrasound for 60 times to reach a complete resuspension for the analysis of insoluble tau. Protein concentration was measured through BCA assays (Thermo Fisher). Equal amount of protein from each sample were separated in SDS-PAGE gels, and then transferred onto nitrocellulose or 0.22 μm polyvinylidene fluoride membranes (Merck Millipore). The membranes were blocked with 5% BSA, and incubated in turn with primary and horseradish peroxidase-conjugated secondary antibodies: pS199-Tau (44734G, Invitrogen, 1:2000), pT205-Tau (11108-1, Signalway, 1:2000), pS396-Tau (11102, Signalway, 1:2000), pS404-Tau (11112, Signalway, 1:2000), AT8 (MN1020, Thermo Fisher, 1:1000), Tau5 (ab80579, Abcam, 1:1000), Tau46 (T9450, Sigma, 1:1000), PP2A-Bα (4953, Cell signaling, 1:1000), Phospho-Ser/Thr (ab17464, Abcam1:1000), Ubiquitin (ab7254, Abcam, 1:1000), MAP2 (AB5622, Millipore, 1:2000), hTau-N368 (a generous gift from Prof. Keqiang Ye, Emory University School of Medicine, 1:1000), DEPTAC (developed by Daian Biotechnology, Wuhan, China, 1:500), β-actin (ab6276, Abcam, 1:2000). HRP-conjugated goat anti-rabbit IgG (A0208, Beyotime, 1:3000), HRP-conjugated goat anti-mouse IgG (A0216, Beyotime, 1:3000). Blots were visualized using ECL luminol reagent (P0018FS, Beyotime), and quantified using ImageJ software.

Tau368 mice [2] = test: Object-place recognition test; assay type: in vivo, mouse
Method: Mice were repeatedly handled during DEPTAC administration before behavioral tests. For object-place recognition in the […], mice were placed in a box (50 × 50 × 50 cm) marked with a visual cue on the wall, and two identical objects (plastic toys) were placed at the two different corners. Each mouse was allowed to freely explore for 5 min, and then removed from the box for 2 min, during which the box and the objects were cleaned with 75% ethanol. Pseudorandomly, one of the two objects (object B) was moved to a new corner while the other object (object A) remained unmoved. In the test phase, mice were allowed to freely explore in the box for another 5 min. Videos were recorded and analyzed online using an ANY-maze video tracking system (Stoelting). The time mice stayed around each object was counted as exploring; and the preference ratio was calculated as the exploring time (B − A) / (B + A).

tau = test: Tau Ser/Thr phosphorylation and ubiquitination in the presence of MG132; assay type: cell-based, rat
Method: as §1, with “Especially, to inhibit the proteasome-dependent proteolysis, the cultured hippocampal neurons were treated with 5 μM MG132 for 5 h before harvest.” left out
Cultured cells or hippocampus tissues were collected on ice, and homogenized with RIPA lysis buffer containing 50 mM Tris-HCl, 100 mM NaCl, 1% Triton X-100, 5 mM EDTA, and 1:100 PMSF, and then centrifuged at 12,000 × g for 20 min. […] Protein concentration was measured through BCA assays (Thermo Fisher). […] Blots were visualized using ECL luminol reagent (P0018FS, Beyotime), and quantified using ImageJ software.
For co-immunoprecipitation, cultured cells were lysed on ice with RIPA buffer for 10 min containing 1:100 PMSF. […] Immunoprecipitants were subsequently analyzed through Western blotting.

[3] = dox-treated Tau368 mice, 1-month DEPTAC after stopping dox, *p < 0.05, n = 10–15 mice
[4] = primary rat hippocampal neurons, hTau overexpression
[5] = primary rat neurons, lentivirus-mediated hTau overexpression, dose- and time-dependent, *p < 0.01, n = 3

## (1) YQQYQDATADEQG, originates from the porcine β-tubulin 422–434 for recognizing and binding tau proteins.[5],[6] (2) GSGS, a linker for increasing the flexibility of the peptide.[15] (3) KKVAVVRTPPKSP, for recruiting PP2A-Bα,[16] and (4) RRRRRRRR [DEPTAC, DEPhosphorylation TArgeting Chimera; 38 amino acid residues, C185H314N72O56]
Tau368 mice [1]; Tau368 mice treated with NW
  novel-object recognition in control mice: only limitedly affected
Tau368 mice [1]; [3]
  novel-object recognition impairment: remarkably ameliorated; also recorded: rescued
HEK293(hTau) cells
  cytotoxicity (CCK8): No cytotoxicity
Human tau (hTau); discussion, only effective above
  effective concentration of DEPTAC: > 200 µM
Human tau (hTau); discussion, only effective within
  effective time window post-administration: ≤ 3 days
Human tau (hTau); [4]
  concentration of most significant reduction of phospho-tau: 200 to 300 µM
  time post administration of most significant reduction of phospho-tau: ≤ 3 days
Human tau (hTau); [5]
  tau phosphorylation at AT8 (Ser199/Ser202/Thr205) epitope: downregulated; also recorded: promoted tau dephosphorylation
  tau phosphorylation at pS199: downregulated; also recorded: promoted tau dephosphorylation
  tau phosphorylation at pS396: downregulated; also recorded: promoted tau dephosphorylation
  tau phosphorylation at pS404: downregulated; also recorded: promoted tau dephosphorylation
  tau phosphorylation at pT205: downregulated; also recorded: promoted tau dephosphorylation
  total tau probed by Tau5 antibody: reduction of total tau; also recorded: reduced total tau
Tau368 mice [2]; Tau368 mice treated with NW
  object-place recognition in control mice: only limitedly affected
Tau368 mice [2]; [3]
  object-place recognition impairment: remarkably ameliorated; also recorded: rescued
tau
  tau phosphorylation at Ser/Thr residues: downregulation; also recorded: decreased
  tau ubiquitination: upregulation; also recorded: upregulated
